The conditions of series [1]: in contrast to allopregnanolone; cited from earlier work.
Series [2] deals with super refractory status epilepticus. In words: Case report: intravenous ganaxolone in a patient with super refractory status epilepticus (EEG, mental status). It is filed as in vivo, human.
A further series has as its system SRSE. The following applies: SRSE patients; anesthesia weaned until seizures started, then higher IV doses; cited from earlier work.

As for `CC(=O)[C@H]1CC[C@H]2[C@@H]3CC[C@H]4C[C@](C)(O)CC[C@]4(C)[C@H]3CC[C@]12C` [Ganaxolone, 3α-hydroxy-3β-methyl-5α-pregnan-20-one], the oral bioavailability result in series [1] was “orally bioavailable”. Moreover, the “frequency of remaining generalized periodic discharges (GPDs) on EEG in subsequent days” value in series [2] (before GNX: 2-4 Hz GPDs, same patient and regimen) is given as “up to 1 Hz”. Besides, the “overall outcome of the case” value in series [2] (late initiation of GNX (hospital day 52)) was “electrographic and clinical improvement”. Also, the “EEG pattern during GNX infusion” value in series [2] (person, SRSE, IV 20 mg bolus, 60 mg/hr first hour, then 42 mg/hr, total 7 days) was “marked improvement in the EEG pattern”. The mental status entry in series [2] (same patient, eye opening, attending, communicating with gestures and facial expressions) is on record as “returned to their premorbid baseline”. The “clinical outcome of earlier higher-dose regimen” value with SRSE is reported as “showed early success, but seizures returned in some patients when ganaxolone serum levels were reduced”.

These data come from patent publication US20250032511A1, “[…] USE IN TREATMENT OF SUPER […] EPILEPTICUS” (MARINUS PHARMACEUTICALS, INC., priority 2023, published 2025).
